Data taken from patent US20220402948A1, “EGFR INHIBITOR, COMPOSITION AND PREPARATION METHOD THEREFOR” (BETTA PHARMACEUTICALS CO., LTD., priority 2019, published 2022).

Columns and labels:
[1] = target: Ba/F3-EGFR wild-type cell line (Homo sapiens, UniProt P00533); assay: Ba/F3-EGFR wild-type cell proliferation assay (CellTiter Glo, 72 hours); format: cell-based; details: Table 2, read-out: EGFR WT IC50
How it was run: (§1)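 Ba/F3 cells stably overexpressing wild-type EGFR or EGFR Δ19del/T790M/C797S were seeded at 2000 cells/well and incubated 72 h with compound. Viability was read by CellTiter-Glo luminescence, and IC50 came from a four-parameter logistic fit of signal against log concentration.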

IGF1R = IGF1R (Homo sapiens, UniProt P08069); assay: IGF1R kinase test (mobility variation analysis, Caliper EZ Reader); format: biochemical; details: kinase enzymatic activity, Table 1; read-out: EGFR IGF1R IC50
How it was run: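 Mobility-shift readout of substrate conversion, normalised to positive (no compound) and negative (no kinase) controls, gives % inhibition and IC50 by four-parameter fit. Compounds, 3-fold dilutions over 10 concentrations starting at 3000 nM, preincubated 10 min with kinase before ATP/substrate start; room temperature.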

EGFRΔ19del/T790M/C797S = EGFRΔ19del/T790M/C797S (Homo sapiens, UniProt P00533, T790M/C797S, form not given); assay: EGFR Δ19del/T790M/C797S kinase test (mobility variation analysis, Caliper EZ Reader); format: biochemical; details: kinase enzymatic activity, Table 1
How it was run: (§2)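 Read-out is substrate-to-product conversion by mobility shift, stopped after incubation at room temperature with ATP and substrate, following a 10-minute room-temperature compound–enzyme pre-incubation. IC50 obtained by four-parameter variable-slope fitting of inhibition normalized between enzyme-free and uninhibited controls.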

[2] = target: Ba/F3 cells with EGFR Δ19del/T790M/C797S mutation gene stably overexpressed (Homo sapiens, UniProt P00533, T790M/C797S, cells depend on it, form not given); assay: Ba/F3-Δ19del/T790M/C797S cell proliferation assay (CellTiter Glo, 72 hours); format: cell-based; details: Table 2, read-out: EGFR Δ19del/T790M/C797S IC50
How it was run: as §1

A431 = A431 cell proliferation assay (CellTiter Glo, 72 hours); format: cell-based; details: Homo sapiens, A-431, 72 h, cell proliferation, A431, 72 hours, Table 2; read-out: A431 IC50
How it was run: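 Luminescence (CellTiter-Glo) after 72 h treatment gives viability, fitted by nonlinear regression to yield IC50. Cells seeded at 2000 per well; nine 3-fold concentrations from 1000 nM, DMSO final 0.1% (0.5% for certain compounds).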

EGFR WT = EGFR WT (Homo sapiens, UniProt P00533); assay: EGFR WT kinase test (mobility variation analysis, Caliper EZ Reader); format: biochemical; details: kinase enzymatic activity, Table 1
How it was run: as §2

Sequence of Ba/F3-EGFR wild-type cell line (P00533 whole entry, stated change not applied): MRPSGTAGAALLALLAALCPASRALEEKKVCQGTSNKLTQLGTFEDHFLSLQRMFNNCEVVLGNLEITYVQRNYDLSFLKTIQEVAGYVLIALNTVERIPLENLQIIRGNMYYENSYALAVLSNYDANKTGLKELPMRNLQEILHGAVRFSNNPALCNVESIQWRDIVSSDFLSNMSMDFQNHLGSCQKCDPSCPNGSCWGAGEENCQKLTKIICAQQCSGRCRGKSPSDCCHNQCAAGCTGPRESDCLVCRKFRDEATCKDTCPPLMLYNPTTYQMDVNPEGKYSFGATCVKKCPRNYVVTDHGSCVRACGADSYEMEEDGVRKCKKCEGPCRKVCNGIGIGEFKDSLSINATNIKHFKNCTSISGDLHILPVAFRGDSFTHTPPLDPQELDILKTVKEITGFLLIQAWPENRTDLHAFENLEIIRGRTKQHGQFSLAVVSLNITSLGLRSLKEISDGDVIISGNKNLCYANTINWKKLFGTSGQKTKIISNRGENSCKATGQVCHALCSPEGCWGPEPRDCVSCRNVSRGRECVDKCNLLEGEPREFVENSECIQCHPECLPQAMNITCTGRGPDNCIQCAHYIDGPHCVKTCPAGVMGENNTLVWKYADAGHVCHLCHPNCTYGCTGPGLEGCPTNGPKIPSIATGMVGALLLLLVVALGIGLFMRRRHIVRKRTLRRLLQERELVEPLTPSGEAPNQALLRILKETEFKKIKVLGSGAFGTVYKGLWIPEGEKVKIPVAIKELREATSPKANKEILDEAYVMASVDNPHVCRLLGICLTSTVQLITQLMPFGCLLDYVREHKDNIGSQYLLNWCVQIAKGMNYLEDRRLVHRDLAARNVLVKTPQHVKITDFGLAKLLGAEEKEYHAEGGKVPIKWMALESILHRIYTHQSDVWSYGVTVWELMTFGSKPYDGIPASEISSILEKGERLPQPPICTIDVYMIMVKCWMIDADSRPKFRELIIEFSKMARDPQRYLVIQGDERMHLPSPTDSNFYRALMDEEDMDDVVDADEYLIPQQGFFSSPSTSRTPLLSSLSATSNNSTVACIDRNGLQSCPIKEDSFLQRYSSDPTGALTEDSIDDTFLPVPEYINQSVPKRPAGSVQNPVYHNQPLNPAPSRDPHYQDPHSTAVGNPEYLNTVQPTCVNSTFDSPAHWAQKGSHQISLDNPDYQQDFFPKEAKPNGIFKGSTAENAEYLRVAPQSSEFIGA
Sequence of IGF1R (P08069 31-1367, species assumed): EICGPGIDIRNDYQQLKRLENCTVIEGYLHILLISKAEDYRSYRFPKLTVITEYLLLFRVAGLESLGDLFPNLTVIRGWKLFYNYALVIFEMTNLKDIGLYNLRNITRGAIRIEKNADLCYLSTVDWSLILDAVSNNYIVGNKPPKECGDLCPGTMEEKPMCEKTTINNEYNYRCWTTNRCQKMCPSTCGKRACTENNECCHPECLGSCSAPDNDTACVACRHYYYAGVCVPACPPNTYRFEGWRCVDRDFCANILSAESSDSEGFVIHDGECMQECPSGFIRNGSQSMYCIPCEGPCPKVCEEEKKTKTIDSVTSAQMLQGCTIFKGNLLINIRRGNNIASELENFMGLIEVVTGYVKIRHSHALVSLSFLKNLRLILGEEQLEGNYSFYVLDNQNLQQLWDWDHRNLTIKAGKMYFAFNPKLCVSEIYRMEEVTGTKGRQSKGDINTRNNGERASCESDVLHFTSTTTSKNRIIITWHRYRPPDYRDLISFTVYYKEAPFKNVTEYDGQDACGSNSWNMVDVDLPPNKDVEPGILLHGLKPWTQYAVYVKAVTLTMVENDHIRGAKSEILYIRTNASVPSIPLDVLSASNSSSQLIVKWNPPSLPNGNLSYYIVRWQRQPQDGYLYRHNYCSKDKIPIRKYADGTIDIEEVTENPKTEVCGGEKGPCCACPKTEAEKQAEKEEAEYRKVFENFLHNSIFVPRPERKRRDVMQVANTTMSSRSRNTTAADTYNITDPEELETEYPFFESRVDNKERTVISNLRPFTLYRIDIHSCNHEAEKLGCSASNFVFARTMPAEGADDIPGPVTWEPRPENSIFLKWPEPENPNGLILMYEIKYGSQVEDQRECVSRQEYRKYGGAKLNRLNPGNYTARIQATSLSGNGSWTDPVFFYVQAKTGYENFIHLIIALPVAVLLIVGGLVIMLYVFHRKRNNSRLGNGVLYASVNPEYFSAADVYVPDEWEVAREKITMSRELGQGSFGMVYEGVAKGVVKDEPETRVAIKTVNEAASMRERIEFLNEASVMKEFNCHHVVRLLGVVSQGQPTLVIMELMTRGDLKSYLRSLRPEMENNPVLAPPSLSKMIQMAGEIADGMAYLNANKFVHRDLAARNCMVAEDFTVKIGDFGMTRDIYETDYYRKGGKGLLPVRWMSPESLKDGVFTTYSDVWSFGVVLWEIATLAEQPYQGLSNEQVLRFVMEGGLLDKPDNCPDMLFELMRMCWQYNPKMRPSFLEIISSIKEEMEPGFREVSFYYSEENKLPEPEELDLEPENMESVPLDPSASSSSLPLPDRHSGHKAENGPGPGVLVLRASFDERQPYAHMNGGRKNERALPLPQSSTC
Sequence of EGFR WT (P00533 25-1210): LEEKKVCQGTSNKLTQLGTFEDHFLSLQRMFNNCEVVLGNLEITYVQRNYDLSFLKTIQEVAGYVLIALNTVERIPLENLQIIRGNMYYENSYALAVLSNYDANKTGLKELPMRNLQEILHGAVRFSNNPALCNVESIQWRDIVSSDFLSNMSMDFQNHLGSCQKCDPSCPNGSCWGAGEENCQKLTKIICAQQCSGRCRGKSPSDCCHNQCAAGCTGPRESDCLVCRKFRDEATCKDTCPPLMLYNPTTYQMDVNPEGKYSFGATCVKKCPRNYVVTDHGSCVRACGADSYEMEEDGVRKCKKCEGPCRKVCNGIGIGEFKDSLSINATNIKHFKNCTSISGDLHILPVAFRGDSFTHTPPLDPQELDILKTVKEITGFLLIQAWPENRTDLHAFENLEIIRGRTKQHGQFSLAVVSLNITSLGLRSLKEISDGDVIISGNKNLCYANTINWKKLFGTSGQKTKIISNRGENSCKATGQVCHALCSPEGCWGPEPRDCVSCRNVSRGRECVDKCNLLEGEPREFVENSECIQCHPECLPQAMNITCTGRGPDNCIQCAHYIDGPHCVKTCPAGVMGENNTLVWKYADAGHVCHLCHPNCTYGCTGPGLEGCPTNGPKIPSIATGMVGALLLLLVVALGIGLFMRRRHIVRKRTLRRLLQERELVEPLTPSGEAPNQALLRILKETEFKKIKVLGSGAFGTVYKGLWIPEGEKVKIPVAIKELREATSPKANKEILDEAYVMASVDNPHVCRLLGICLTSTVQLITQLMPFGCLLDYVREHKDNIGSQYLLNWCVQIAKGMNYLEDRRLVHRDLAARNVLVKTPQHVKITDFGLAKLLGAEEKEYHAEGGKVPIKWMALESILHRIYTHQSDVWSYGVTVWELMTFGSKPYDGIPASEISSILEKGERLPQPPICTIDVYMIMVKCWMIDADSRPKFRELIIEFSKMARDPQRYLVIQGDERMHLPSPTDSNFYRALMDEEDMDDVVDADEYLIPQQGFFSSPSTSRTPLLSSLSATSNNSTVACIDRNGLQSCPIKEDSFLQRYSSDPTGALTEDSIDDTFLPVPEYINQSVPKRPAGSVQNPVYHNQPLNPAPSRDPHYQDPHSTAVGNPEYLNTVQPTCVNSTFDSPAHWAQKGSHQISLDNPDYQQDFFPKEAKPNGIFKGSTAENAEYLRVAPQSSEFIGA
Sequence of EGFRΔ19del/T790M/C797S (P00533 with tags, fused parts or gaps DEL746-750/T790M/C797S, form open): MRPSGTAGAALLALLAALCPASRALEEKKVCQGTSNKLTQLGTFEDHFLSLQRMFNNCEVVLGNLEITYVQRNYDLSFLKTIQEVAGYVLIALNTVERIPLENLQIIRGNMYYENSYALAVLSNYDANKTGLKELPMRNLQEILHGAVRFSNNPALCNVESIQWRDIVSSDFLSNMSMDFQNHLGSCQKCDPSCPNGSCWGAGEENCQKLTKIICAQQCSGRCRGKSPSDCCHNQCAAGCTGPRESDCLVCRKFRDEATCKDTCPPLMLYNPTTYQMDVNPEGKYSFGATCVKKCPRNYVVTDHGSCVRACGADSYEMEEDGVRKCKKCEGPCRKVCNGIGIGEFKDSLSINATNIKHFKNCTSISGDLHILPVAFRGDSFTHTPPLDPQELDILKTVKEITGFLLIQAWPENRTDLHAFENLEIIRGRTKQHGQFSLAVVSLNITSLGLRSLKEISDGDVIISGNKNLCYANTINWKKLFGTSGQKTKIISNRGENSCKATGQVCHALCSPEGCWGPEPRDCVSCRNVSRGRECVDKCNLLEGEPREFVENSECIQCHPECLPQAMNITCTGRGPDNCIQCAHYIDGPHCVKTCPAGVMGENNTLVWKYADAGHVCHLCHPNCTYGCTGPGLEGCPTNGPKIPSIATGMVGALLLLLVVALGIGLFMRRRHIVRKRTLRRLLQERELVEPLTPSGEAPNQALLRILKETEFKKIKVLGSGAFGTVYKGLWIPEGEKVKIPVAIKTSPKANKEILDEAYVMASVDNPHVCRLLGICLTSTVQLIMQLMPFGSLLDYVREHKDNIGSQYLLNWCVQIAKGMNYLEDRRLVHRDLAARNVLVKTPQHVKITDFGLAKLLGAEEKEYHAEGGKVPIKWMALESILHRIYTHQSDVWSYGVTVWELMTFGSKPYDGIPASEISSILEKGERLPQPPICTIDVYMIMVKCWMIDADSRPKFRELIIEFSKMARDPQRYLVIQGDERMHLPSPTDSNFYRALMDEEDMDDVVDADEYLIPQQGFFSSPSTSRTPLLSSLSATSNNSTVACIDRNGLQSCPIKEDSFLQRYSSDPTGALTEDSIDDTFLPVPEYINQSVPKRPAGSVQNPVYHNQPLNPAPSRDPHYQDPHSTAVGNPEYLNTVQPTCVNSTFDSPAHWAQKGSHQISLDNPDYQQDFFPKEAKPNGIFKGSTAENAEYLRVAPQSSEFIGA

| SMILES | GI50 [1] [nM] | IC50 (IGF1R) [nM] | IC50 (EGFRΔ19del/T790M/C797S) [nM] | GI50 [2] [nM] | IC50 (A431) [nM] | IC50 (EGFR WT) [nM] |
| --- | --- | --- | --- | --- | --- | --- |
| C#Cc1cncc(-c2ccc(Nc3nc(Nc4cc(CC)c(N5CCC(N6CCN(C)CC6)CC5)cc4OC)ncc3Br)c(P(C)(C)=O)c2)n1 [Compound K-013, (2-((5-Bromo-2-((5-ethyl-2-methoxy-4-(4-(4-methylpiperazin-1-yl)piperidin-1-yl)phenyl)amino)pyrimidin-4-yl)amino)-5-(6-ethynylpyrazin-2-yl)phenyl)dimethylphosphine oxide] | 70 | 166 | 0.3 | 15.2 | 1420 | 22.1 |
| COc1cc(Nc2ncc(Br)c(Nc3ccc(-c4cnn(C)n4)cc3P(C)(C)=O)n2)c(C)cc1N1CCOCC1 [Compound K-015, (2-((5-Bromo-2-((5-methoxy-2-methyl-4-morpholinophenyl)amino)pyrimidin-4-yl)amino)-5-(2-methyl-2H-1,2,3-triazol-4-yl)phenyl)dimethylphosphine oxide] | 178 | 56.6 | 0.2 | 13.6 | 953 | 27.4 |
| C#Cc1ccc(-c2ccc(Nc3nc(Nc4cc(C)c(N5CCC(N6CCN(C)CC6)CC5)cc4OC)ncc3Br)c(P(C)(C)=O)c2)s1 [Compound K-016, (2-((5-Bromo-2-((2-methoxy-5-methyl-4-(4-(4-methylpiperazin-1-yl)piperidin-1-yl)phenyl)amino)pyrimidin-4-yl)amino)-5-(5-ethynylthiophen-2-yl)phenyl)dimethylphosphine oxide] | 145 | 94 | 0.5 | 15.3 | 497 | 13.1 |
| CCc1cc(Nc2ncc(Br)c(Nc3ccc(-n4cc(OC)cn4)cc3P(C)(C)=O)n2)c(OC)cc1N1CCC(N2CCCCC2)CC1 [Compound K-020] | 226 | 126 | 0.3 | 9.2 | 1130 | 22 |

The remaining lines, values ahead:

| GI50 [1] [nM] | IC50 (IGF1R) [nM] | IC50 (EGFRΔ19del/T790M/C797S) [nM] | GI50 [2] [nM] | IC50 (A431) [nM] | IC50 (EGFR WT) [nM] | SMILES |
| --- | --- | --- | --- | --- | --- | --- |
| 56 | 50.5 | 0.5 | 7.6 | 816 | 32.5 | C#Cc1cnc(-c2ccc(Nc3nc(Nc4cc(OC)c(N5CCC(N6CCN(C)CC6)CC5)cc4C)ncc3Br)c(P(C)(C)=O)c2)cn1 [Compound K-014, (2-((5-Bromo-2-((5-methoxy-2-methyl-4-(4-(4-methylpiperazin-1-yl)piperidin-1-yl)phenyl)imino)pyrimidin-4-yl)amino)-5-(5-ethynylpyrazin-2-yl)phenyl)dimethylphosphine oxide] |
| 445 | 39.1 | 0.5 | 12 | 812 | 14.4 | COc1cc(Nc2ncc(Br)c(Nc3ccc(-c4cnccn4)cc3P(C)(C)=O)n2)c(C)cc1N1CCC(N2CCN(C)CC2)CC1 [Compound K-017, (2-((5-Bromo-2-((5-methoxy-2-methyl-4-(4-(4-methylpiperazin-1-yl)piperidin-1-yl)phenyl)amino)pyrimidin-4-yl)amino)-5-(pyrazin-2-yl)phenyl)dimethylphosphine oxide] |
| 295 | 67.2 | 0.2 | 9.7 | 1060 | 17.1 | COc1cnn(-c2ccc(Nc3nc(Nc4cc(OC)c(N5CCC(N6CCN(C)CC6)CC5)cc4C)ncc3Br)c(P(C)(C)=O)c2)c1 [Compound K-018, (2-((5-Bromo-2-((5-methoxy-2-methyl-4-(4-(4-methylpiperazin-1-yl)piperidin-1-yl)phenyl)amino)pyrimidin-4-yl)amino)-5-(4-methoxy-1H-pyrazol-1-yl)phenyl)dimethylphosphine oxide] |
| 48.7 | 33.1 | 0.2 | 16 | 535 | 14.7 | COc1cc(Nc2ncc(Br)c(Nc3ccc(-c4nccs4)cc3P(C)(C)=O)n2)c(C)cc1N1CCC(N2CCN(C)CC2)CC1 [Compound K-019, (2-((5-Bromo-2-((5-methoxy-2-methyl-4-(4-(4-methylpiperazin-1-yl)piperidin-1-yl)phenyl)amino)pyrimidin-4-yl)amino)-5-(thiazol-2-yl)phenyl)dimethylphosphine oxide] |
